This experiment has as its target T1, human TGR5 (Homo sapiens, UniProt Q8TDU6).
T1 construct: expressed in transfected cells; host or cells: HEK293
T1 sequence (Q8TDU6 1-330): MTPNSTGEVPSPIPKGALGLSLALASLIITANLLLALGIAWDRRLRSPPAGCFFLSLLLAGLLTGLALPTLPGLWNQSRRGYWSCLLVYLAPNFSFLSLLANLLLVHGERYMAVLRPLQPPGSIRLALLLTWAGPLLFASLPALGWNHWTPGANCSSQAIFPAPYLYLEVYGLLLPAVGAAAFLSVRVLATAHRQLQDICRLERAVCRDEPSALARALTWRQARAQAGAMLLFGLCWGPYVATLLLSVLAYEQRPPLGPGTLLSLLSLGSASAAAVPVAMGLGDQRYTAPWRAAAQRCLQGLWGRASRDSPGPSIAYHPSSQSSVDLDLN
Briefly: Cell-based TGR5 assay (cAMP generation, HTRF). The settings on record: HEK293 cells stably transfected with human TGR5; cAMP by HTRF; 30 minutes at 37° C.; read-out: pEC50 Human TGR5 (converted). A digest of the protocol:
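First, compounds in 3-fold serial dilution were placed in HBSS with 10 mM HEPES pH 7.4 and 0.5 mM IBMX. Next, human TGR5-expressing HEK293 cells were added and incubated 30 min at 37° C. Finally, cAMP was detected by HTRF and pEC50 derived by logistic fitting.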
For the compound `CCN(CCOCCNC(=O)N[C@@H](CO)[C@@H](O)[C@H](O)[C@H](O)CO)S(=O)(=O)c1ccc(Cl)c(COC2(c3cnccc3-c3ccccc3OC3CC3)CC2)c1` [Compound I-415, 1-(2-{2-[N-ethyl4-chloro-3-({1-[4-(2-cyclopropoxyphenyl)pyridin-3-yl]cyclopropoxy}methyl)benzenesulfonamido]ethoxy}ethyl)-3-[(2S,3R,4S,5R)-1,3,4,5,6-pentahydroxyhexan-2-yl]urea], the EC50 is under 100 nM.
Consider `CC(CCCC(=O)N1CCC(NC[C@H](O)[C@@H](O)[C@H](O)[C@H](O)C(=O)O)CC1)c1ccc(Cl)c(CNC2(c3cnccc3-c3ccccc3OC3CC3)CC2)c1` (stereo partly drawn) [Compound I-318, (2S,3S,4R,5S)-6-{[1-(5-{4-chloro-3-[({1-[4-(2-cyclopropoxyphenyl)pyridin-3-yl]cyclopropyl}amino)methyl]phenyl}hexanoyl)piperidin-4-yl]amino}-2,3,4,5-tetrahydroxyhexanoic acid], for which the EC50 is under 100 nM.
For `Cc1ccc(SCCCCN(CCCCO)C(=O)[C@@H](O)[C@@H](O)[C@H](O)[C@@H](O)CO)cc1CNC1(c2cnccc2-c2ccccc2OC2CC2)CC1` [Compound I-550, (2S,3S,4R,5S)-N-[4-({3-[({1-[4-(2-cyclopropoxyphenyl)pyridin-3-yl]cyclopropyl}amino)methyl]-4-methylphenyl}sulfanyl)butyl]-2,3,4,5,6-pentahydroxy-N-(4-hydroxybutyl)hexanamide], the EC50 was 126 to 1000 nM.
With `CN(CCCCNC(=O)N[C@@H](CO)[C@@H](O)[C@@H](O)[C@H](O)CO)S(=O)(=O)c1ccc(Cl)c(COC2(c3cnccc3-c3ccccc3OC3CC3)CC2)c1` [Compound I-776, 4-chloro-3-((1-(4-(2-cyclopropoxyphenyl)pyridin-3-yl)cyclopropoxy)methyl)-N-methyl-N-(4-(3-((2S,3R,4R,5R)-1,3,4,5,6-pentahydroxyhexan-2-yl)ureido)butyl)benzenesulfonamide] the figure was under 100 nM; with `CC(=O)N1C[C@@H]2C[C@H]1CN2S(=O)(=O)c1ccc(Cl)c(COC2(c3cnccc3-c3ccccc3OC3CC3)CC2)c1` [Compound I-780, 1-((1S,4S)-5-((4-chloro-3-((1-(4-(2-cyclopropoxyphenyl)pyridin-3-yl)cyclopropoxy)methyl)phenyl)sulfonyl)-2,5-diazabicyclo[2.2.1]heptan-2-yl)ethan-1-one], 126 to 1000 nM.
With `O=C(NCCCCc1cc(Cl)c(COC2(c3cnccc3-c3ccccc3OC3CC3)CC2)cc1Cl)NC[C@H](O)[C@@H](O)[C@H](O)[C@H](O)CO` [Compound I-141, 1-{4-[2,5-dichloro-4-({1-[4-(2-cyclopropoxyphenyl)pyridin-3-yl]cyclopropoxy}methyl)phenyl]butyl}-3-[(2S,3R,4R,5R)-2,3,4,5,6-pentahydroxyhexyl]urea] the figure was under 100 nM.
Next, `CC(C)C(=O)N(CCCCc1cc(Cl)c(COC2(c3cnccc3-c3ccccc3OC3CC3)CC2)cc1Cl)C[C@H](O)[C@@H](O)[C@H](O)[C@H](O)CO` [Compound I-69, N-{4-[2,5-dichloro-4-({1-[4-(2-cyclopropoxyphenyl)pyridin-3-yl]cyclopropoxy}methyl)phenyl]butyl}-2-methyl-N-[(2S,3R,4R,5R)-2,3,4,5,6-pentahydroxyhexyl]propanamide]: 126 to 1000 nM; `C[C@@H](CCCCC(=O)N(C)C[C@H](O)[C@@H](O)[C@H](O)[C@H](O)CO)c1ccc(Cl)c(CNC2(c3cnccc3-c3ccccc3OC3CC3)CC2)c1` (single isomer, unassigned) [Compound I-328]: under 100 nM; `O=C([C@@H](O)[C@@H](O)[C@H](O)[C@@H](O)CO)N(CCCSc1ccc(Cl)c(COC2(c3cnccc3-c3ccccc3OC3CC3)CC2)c1)CCOCCO` [Compound I-518, (2S,3S,4R,5S)-N-(3-{[4-chloro-3-({1-[4-(2-cyclopropoxyphenyl)pyridin-3-yl]cyclopropoxy}methyl)phenyl]sulfanyl}propyl)-2,3,4,5,6-pentahydroxy-N-[2-(2-hydroxyethoxy)ethyl]hexanamide]: under 100 nM.
Take `CCN(CCCCNC(=O)NC[C@H](O)[C@@H](O)[C@H](O)[C@H](O)CO)S(=O)(=O)c1ccc(Cl)c(COC2(c3cnccc3-c3ccccc3OC3CC3)CC2)c1` [Compound I-390, 4-chloro-3-((1-(4-(2-cyclopropoxyphenyl)pyridin-3-yl)cyclopropoxy)methyl)-N-ethyl-N-(4-(3-((2S,3R,4R,5R)-2,3,4,5,6-pentahydroxyhexyl)ureido)butyl) benzenesulfonamide]: the EC50 is under 100 nM.
`C[C@H](CCCCNC(=O)NC[C@H](O)[C@@H](O)[C@H](O)[C@H](O)CO)c1ccc(Cl)c(COC2(c3cnccc3-c3ccccc3OC3CC3)CC2)c1` (single isomer, unassigned) [Compound I-273]: the EC50 is under 100 nM.
Next, `O=S(=O)(Nc1nccs1)c1ccc(Cl)c(COC2(c3cnccc3-c3ccccc3OC3CC3)CC2)c1` [Compound I-770, 4-chloro-3-((1-(4-(2-cyclopropoxyphenyl)pyridin-3-yl)cyclopropoxy)methyl)-N-(thiazol-2-yl)benzenesulfonamide]: under 100 nM.
As to `CN(C[C@H](O)[C@@H](O)[C@H](O)[C@H](O)CO)S(=O)(=O)c1ccc(Cl)c(COC2(c3cnccc3-c3ccccc3OC3CC3)CC2)c1` [Compound I-398, (2S,3R,4R,5R)-S-[4-chloro-3-({1-[4-(2-cyclopropoxyphenyl)pyridin-3-yl]cyclopropoxy}methyl)phenyl]-2,3,4,5,6-pentahydroxy-N-methylhexane-1-sulfonamido], the EC50 was under 100 nM.
Next, `CS(=O)(=O)CCN(CCCCSc1ccc(Cl)c(CNC2(c3cnccc3-c3ccccc3OC3CC3)CC2)c1)C(=O)[C@@H](O)[C@@H](O)[C@H](O)[C@@H](O)CO` [Compound I-584, (2S,3S,4R,5S)-N-[4-({4-chloro-3-[({-[4-(2-cyclopropoxyphenyl)pyridin-3-yl]cyclopropyl}amino)methyl]phenyl}sulfanyl)butyl]-2,3,4,5,6-pentahydroxy-N-(2-methanesulfonylethyl) hexanamide]: under 100 nM; `CC(=O)NCCCN(CCCCSc1ccc(Cl)c(CNC2(c3cnccc3-c3ccccc3OC3CC3)CC2)c1)C(=O)[C@@H](O)[C@@H](O)[C@H](O)[C@@H](O)CO` [Compound I-573, (2S,3S,4R,5S)-N-[4-({4-chloro-3-[({1-[4-(2-cyclopropoxyphenyl)pyridin-3-yl]cyclopropyl}amino)methyl]phenyl}sulfanyl)butyl]-N-(3-acetamidopropyl)-2,3,4,5,6-pentahydroxyhexanamide]: 126 to 1000 nM.
Next, `Cc1ccc(C(C)CCCCNC(=O)[C@@H](O)[C@@H](O)[C@H](O)[C@@H](O)CO)cc1CNC1(c2cnccc2-c2ccccc2OC2CC2)CC1` (stereo partly drawn) [Compound I-300, (2S,3S,4R,5S)-N-(5-{3-[({1-[4-(2-cyclopropoxyphenyl)pyridin-3-yl]cyclopropyl}amino)methyl]-4-methylphenyl}hexyl)-2,3,4,5,6-pentahydroxyhexanamide]: under 100 nM; `CC(CCCN(CCN1CCS(=O)(=O)CC1)C(=O)[C@@H](O)[C@@H](O)[C@H](O)[C@@H](O)CO)c1ccc(Cl)c(CNC2(c3cnccc3-c3ccccc3OC3CC3)CC2)c1` (stereo partly drawn) [Compound I-298, (2S,3S,4R,5S)-N-(4-{4-chloro-3-[({1-[4-(2-cyclopropoxyphenyl)pyridin-3-yl]cyclopropyl}amino)methyl]phenyl}pentyl)-N-[2-(1,1-dioxo-1λ^6,4-thiomorpholin-4-yl)ethyl]-2,3,4,5,6-pentahydroxyhexanamide]: under 100 nM; `NC(=O)CN(C[C@H](O)[C@@H](O)[C@H](O)[C@H](O)CO)C(=O)CCCSc1ccc(Cl)c(COC2(c3cnccc3-c3ccccc3OC3CC3)CC2)c1` [Compound I-663, N-(carbamoylmethyl)-4-{[4-chloro-3-({1-[4-(2-cyclopropoxyphenyl)pyridin-3-yl]cyclopropoxy}methyl)phenyl]sulfanyl}-N-[(2S,3R,4R,5R)-2,3,4,5,6-pentahydroxyhexyl]butanamide]: 126 to 1000 nM.
With `O=C(NC[C@H](O)[C@@H](O)[C@H](O)[C@H](O)CO)c1ccc(CCc2ccc(Cl)c(COC3(c4cnccc4-c4ccccc4OC4CC4)CC3)c2)cn1` [Compound I-748, 5-(4-chloro-3-((1-(4-(2-cyclopropoxyphenyl)pyridin-3-yl)cyclopropoxy)methyl)phenethyl)-N-((2S,3R,4R,5R)-2,3,4,5,6-pentahydroxyhexyl)picolinamide] the figure was under 100 nM; with `Cc1ccc(C(C)CCCC(=O)N(CCCS(C)(=O)=O)C[C@H](O)[C@@H](O)[C@H](O)[C@H](O)CO)cc1CNC1(c2cnccc2-c2ccccc2OC2CC2)CC1` (stereo partly drawn) [Compound I-370, 5-{3-[({1-[4-(2-cyclopropoxyphenyl)pyridin-3-yl]cyclopropyl}amino)methyl]-4-methylphenyl}-N-(3-methanesulfonylpropyl)-N-[(2S,3R,4R,5R)-2,3,4,5,6-pentahydroxyhexyl]hexanamide], under 100 nM; with `C[C@H](CCCC(=O)N(C)C[C@H](O)[C@@H](O)[C@H](O)[C@H](O)CO)c1ccc(Cl)c(CNC2(c3cnccc3-c3ccccc3OC3CC3)CC2)c1` (single isomer, unassigned) [Compound I-326], under 100 nM.

The values are drawn from US12084472B2 (Ardelyx, Inc., priority 2015, dated 2024).
